Results published in patent publication US20240025883A1, “PYRIMIDIN-2-YL SULFONAMIDE DERIVATIVES” (Hoffmann-La Roche Inc., priority 2021, published 2024).

molecular target: human GPR17 short isoform (Homo sapiens (Human), UniProt Q13304); assay: GPR17 cAMP assay (hGPR17 cAMP, antagonist mode against EC80 of MDL29,951); type: cell-based; conditions: CHO-K1 cells stably expressing human GPR17 short isoform; EC80 of agonist MDL29,951; forskolin 15 μM
Outline: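 cAMP was read by competitive TR-FRET after a 30 min room-temperature stimulation: antagonists plus EC80 MDL29,951 and 0.5 mM IBMX, followed 5 min later by 15 μM forskolin. Cells were CHO-K1 with stable human GPR17 short isoform in HBSS/HEPES/BSA, pH 7.4; percent activity versus reference antagonist fitted sigmoidally.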

Chain of human GPR17 short isoform (Q13304 29-367): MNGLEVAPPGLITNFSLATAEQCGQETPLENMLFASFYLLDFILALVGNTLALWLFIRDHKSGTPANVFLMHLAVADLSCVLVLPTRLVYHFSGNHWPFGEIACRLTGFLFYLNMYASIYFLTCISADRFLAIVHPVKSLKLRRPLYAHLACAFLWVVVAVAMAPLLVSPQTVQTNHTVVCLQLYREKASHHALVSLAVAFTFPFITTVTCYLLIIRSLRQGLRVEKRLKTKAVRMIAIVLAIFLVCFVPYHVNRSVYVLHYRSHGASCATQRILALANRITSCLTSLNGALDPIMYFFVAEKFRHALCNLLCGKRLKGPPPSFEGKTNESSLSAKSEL

Going from `COc1nc(NS(=O)(=O)c2csc3nc(C(F)F)ccc23)nc(OC)c1CC(F)F` [Example 167, N-[5-(2,2-difluoroethyl)-4,6-dimethoxy-pyrimidin-2-yl]-6-(difluoromethyl)thieno[2,3-b]pyridine-3-sulfonamide] to `COc1nc(NS(=O)(=O)c2c[nH]c3nc(Br)ccc23)nc(OC)c1CC(F)F` [Example 111, 6-bromo-N-[5-(2,2-difluoroethyl)-4,6-dimethoxy-pyrimidin-2-yl]-1H-pyrrolo[2,3-b]pyridine-3-sulfonamide], the IC50 falls from 259 nM to 13 nM (20-fold).

First: COc1nc(NS(=O)(=O)c2c[nH]c3c(F)c(Br)ccc23)ncc1CCC#N [Example 240, 6-bromo-N-[5-(2-cyanoethyl)-4-methoxy-pyrimidin-2-yl]-7-fluoro-1H-indole-3-sulfonamide]
Second: COc1nc(NS(=O)(=O)c2csc3c(F)c(Cl)ccc23)ncc1CCC#N [Example 163, 6-chloro-N-[5-(2-cyanoethyl)-4-methoxy-pyrimidin-2-yl]-7-fluoro-benzothiophene-3-sulfonamide]
The IC50 of the first is 4.5-fold lower: 48 nM for the first, 216 nM for the second. The first is the more potent here.

Going from `COCCc1c(OC)nc(NS(=O)(=O)c2c[nH]c3cc(Cl)ccc23)nc1OC` [Example 66, 6-chloro-N-[4,6-dimethoxy-5-(2-methoxyethyl)pyrimidin-2-yl]-1H-indole-3-sulfonamide] to `COc1nc(NS(=O)(=O)c2c[nH]c3cc(Cl)ccc23)nc(OC)c1CCC(F)F` [Example 62, 6-chloro-N-[5-(3,3-difluoropropyl)-4,6-dimethoxy-pyrimidin-2-yl]-1H-indole-3-sulfonamide], the IC50 falls from 19 nM to 12 nM (1.6-fold).

Going from `COc1nc(NS(=O)(=O)c2c[nH]c3cc(Cl)ccc23)ncc1OCCCF` [Example 174, 6-chloro-N-[5-(3-fluoropropoxy)-4-methoxy-pyrimidin-2-yl]-1H-indole-3-sulfonamide] to `COc1nc(NS(=O)(=O)c2c[nH]c3cc(Cl)ccc23)ncc1CCC(F)F` [Example 48, 6-chloro-N-[5-(3,3-difluoropropyl)-4-methoxy-pyrimidin-2-yl]-1H-indole-3-sulfonamide], the IC50 falls from 484 nM to 26 nM (19-fold).

`COc1nc(NS(=O)(=O)c2c[nH]c3c(Br)c(Cl)ccc23)nc(OC)c1CC(F)F` [Example 283, 7-Bromo-6-Chloro-N-[5-(2,2-Difluoroethyl)-4,6-Dimethoxy-Pyrimidin-2-Yl]-1H-Indole-3-Sulfonamide] and `COc1nc(NS(=O)(=O)c2c[nH]c3c(F)c(Cl)ccc23)nc(OC)c1CC(F)F` [Example 217, 6-chloro-N-[5-(2,2-difluoroethyl)-4,6-dimethoxy-pyrimidin-2-yl]-7-fluoro-1H-indole-3-sulfonamide] are within 1.5-fold of each other in IC50: 13 nM for the first, 17 nM for the second.

Compared with `COc1nc(NS(=O)(=O)c2c[nH]c3c(Br)c(F)ccc23)ncc1CC(F)F` [Example 128, 7-bromo-N-[5-(2,2-difluoroethyl)-4-methoxy-pyrimidin-2-yl]-6-fluoro-1H-indole-3-sulfonamide], `COc1nc(NS(=O)(=O)c2c[nH]c3cc(Br)ccc23)ncc1CC(F)F` [Example 88, 6-bromo-N-[5-(2,2-difluoroethyl)-4-methoxy-pyrimidin-2-yl]-1H-indole-3-sulfonamide] is 14-fold lower in IC50: 446 nM for the first, 33 nM for the second.

`COc1nc(NS(=O)(=O)c2c[nH]c3nc(Br)ccc23)ncc1OCCF` [Example 230, 6-bromo-N-[5-(2-fluoroethoxy)-4-methoxy-pyrimidin-2-yl]-1H-pyrrolo[2,3-b]pyridine-3-sulfonamide] and `COc1nc(NS(=O)(=O)c2c[nH]c3c(C(F)F)c(Cl)ccc23)ncc1OCCF` [Example 4, 6-chloro-7-(difluoromethyl)-N-[5-(2-fluoroethoxy)-4-methoxy-pyrimidin-2-yl]-1H-indole-3-sulfonamide] are within 1.5-fold of each other in IC50: 41 nM for the first, 34 nM for the second.

`COc1nc(NS(=O)(=O)c2c[nH]c3cc(C(F)(F)F)ccc23)ncc1CC(F)F` [Example 190, N-[5-(2,2-difluoroethyl)-4-methoxy-pyrimidin-2-yl]-6-(trifluoromethyl)-1H-indole-3-sulfonamide] and `COc1nc(NS(=O)(=O)c2c[nH]c3cc(Cl)ccc23)ncc1CC(F)C(F)F` (stereo not shown) [Example 266, 6-chloro-N-[4-methoxy-5-(2,3,3-trifluoropropyl)pyrimidin-2-yl]-1H-indole-3-sulfonamide] are within 1.5-fold of each other in IC50: 106 nM for the first, 90 nM for the second.

`COc1nc(NS(=O)(=O)c2c[nH]c3nc(Cl)ccc23)nc(OC)c1CC(F)F` [Example 120, 6-chloro-N-[5-(2,2-difluoroethyl)-4,6-dimethoxy-pyrimidin-2-yl]-1H-pyrrolo[2,3-b]pyridine-3-sulfonamide] and `COc1nc(NS(=O)(=O)c2c[nH]c3nc(C)ccc23)nc(OC)c1CC(F)F` [Example 132, N-[5-(2,2-difluoroethyl)-4,6-dimethoxy-pyrimidin-2-yl]-6-methyl-1H-pyrrolo[2,3-b]pyridine-3-sulfonamide] are within 1.5-fold of each other in IC50: 40 nM for the first, 39 nM for the second.

`COc1nc(NS(=O)(=O)c2c[nH]c3c4c(ccc23)COC4)nc(OC)c1CC(F)F` [Example 229, N-[5-(2,2-difluoroethyl)-4,6-dimethoxy-pyrimidin-2-yl]-6,8-dihydro-1H-fur[3,4-g]indole-3-sulfonamide] and `COc1nc(NS(=O)(=O)c2c[nH]c3cc(Br)ccc23)nc(OC)c1CC(F)F` [Example 245, 6-bromo-N-[5-(2,2-difluoroethyl)-4,6-dimethoxy-pyrimidin-2-yl]-1H-indole-3-sulfonamide] are the same in IC50: 27 nM for the first, 27 nM for the second.

`COc1nc(NS(=O)(=O)c2c[nH]c3c(C(F)F)c(Cl)ccc23)ncc1CCC(F)F` [Example 209, 6-chloro-7-(difluoromethyl)-N-[5-(3,3-difluoropropyl)-4-methoxy-pyrimidin-2-yl]-1H-indole-3-sulfonamide] and `COc1nc(NS(=O)(=O)c2csc3nc(Br)ccc23)ncc1CCC(F)F` [Example 270, 6-bromo-N-[5-(3,3-difluoropropyl)-4-methoxy-pyrimidin-2-yl]thieno[2,3-b]pyridine-3-sulfonamide] are within 1.5-fold of each other in IC50: 68 nM for the first, 72 nM for the second.

Compared with `COc1nc(NS(=O)(=O)c2c[nH]c3cc(Cl)ccc23)nc(OC)c1OCCF` [Example 53, 6-chloro-N-[5-(2-fluoroethoxy)-4,6-dimethoxy-pyrimidin-2-yl]-1H-indole-3-sulfonamide], `COc1nc(NS(=O)(=O)c2c[nH]c3cc(F)ccc23)nc(OC)c1OCC(F)F` [Example 257, N-[5-(2,2-difluoroethoxy)-4,6-dimethoxy-pyrimidin-2-yl]-6-fluoro-1H-indole-3-sulfonamide] is 7.6-fold higher in IC50: 11 nM for the first, 84 nM for the second.

First: COc1nc(NS(=O)(=O)c2c[nH]c3cc(Cl)ccc23)nc(C2CC2)c1CC(F)F [Example 79, 6-chloro-N-[4-cyclopropyl-5-(2,2-difluoroethyl)-6-methoxy-pyrimidin-2-yl]-1H-indole-3-sulfonamide]
Second: COc1nc(NS(=O)(=O)c2c[nH]c3cc(Cl)ccc23)nc(C2CC2)c1OCC(F)F [Example 19, 6-chloro-N-[4-cyclopropyl-5-(2,2-difluoroethoxy)-6-methoxy-pyrimidin-2-yl]-1H-indole-3-sulfonamide]
The IC50 of the first is 2.6-fold higher: 128 nM for the first, 49 nM for the second.

Going from `COc1nc(NS(=O)(=O)c2c[nH]c3c2ccc2cccnc23)nc(OC)c1OCCF` [Example 117, N-[5-(2-fluoroethoxy)-4,6-dimethoxy-pyrimidin-2-yl]-1H-pyrrolo[3,2-h]quinoline-3-sulfonamide] to `COc1nc(NS(=O)(=O)c2c[nH]c3c(SC(F)F)c(Cl)ccc23)nc(OC)c1OCCF` [Example 106, 6-chloro-7-(difluoromethylthio)-N-[5-(2-fluoroethoxy)-4,6-dimethoxy-pyrimidin-2-yl]-1H-indole-3-sulfonamide], the IC50 falls from 30 nM to 7 nM (4.3-fold).

`COc1nc(NS(=O)(=O)c2c[nH]c3cc(C(F)F)ccc23)nc(OC)c1OCC#N` [Example 237, N-[5-(cyanomethoxy)-4,6-dimethoxy-pyrimidin-2-yl]-6-(difluoromethyl)-1H-indole-3-sulfonamide] and `COc1nc(NS(=O)(=O)c2c[nH]c3c(C#N)c(Cl)ccc23)nc(OC)c1OC(F)F` [Example 224, 6-chloro-7-cyano-N-[5-(difluoromethoxy)-4,6-dimethoxy-pyrimidin-2-yl]-1H-indole-3-sulfonamide] are within 1.5-fold of each other in IC50: 34 nM for the first, 25 nM for the second.

First: COc1nc(NS(=O)(=O)c2c[nH]c3cc(Cl)ccc23)nc(OC(F)F)c1C [Example 72, 6-chloro-N-[4-(difluoromethoxy)-6-methoxy-5-methyl-pyrimidin-2-yl]-1H-indole-3-sulfonamide]
Second: COc1nc(NS(=O)(=O)c2c[nH]c3cc(Cl)ccc23)nc(C(F)F)c1Br [Example 84, N-[5-bromo-4-(difluoromethyl)-6-methoxy-pyrimidin-2-yl]-6-chloro-1H-indole-3-sulfonamide]
The IC50 of the first is 13-fold lower: 40 nM for the first, 521 nM for the second. The first is the more potent here.

First: COc1nc(NS(=O)(=O)c2c[nH]c3c(F)c(Cl)ccc23)nc(OC)c1OC(F)F [Example 125, 6-chloro-N-[5-(difluoromethoxy)-4,6-dimethoxy-pyrimidin-2-yl]-7-fluoro-1H-indole-3-sulfonamide]
Second: COc1nc(NS(=O)(=O)c2c[nH]c3cc(Br)ccc23)ncc1OCC(F)F [Example 143, 6-bromo-N-[5-(2,2-difluoroethoxy)-4-methoxy-pyrimidin-2-yl]-1H-indole-3-sulfonamide]
The IC50 of the first is 4.7-fold lower: 23 nM for the first, 109 nM for the second.

`COc1nc(NS(=O)(=O)c2csc3nc(Cl)ccc23)ncc1CC(F)F` [Example 139, 6-chloro-N-[5-(2,2-difluoroethyl)-4-methoxy-pyrimidin-2-yl]thieno[2,3-b]pyridine-3-sulfonamide] and `COc1nc(NS(=O)(=O)c2csc3nc(Br)ccc23)ncc1OCC(F)F` [Example 145, 6-bromo-N-[5-(2,2-difluoroethoxy)-4-methoxy-pyrimidin-2-yl]thieno[2,3-b]pyridine-3-sulfonamide] are within 1.5-fold of each other in IC50: 106 nM for the first, 152 nM for the second.

`COc1nc(NS(=O)(=O)c2c[nH]c3cc(Cl)ccc23)ncc1CCC1COC1` [Example 181, 6-chloro-N-[4-methoxy-5-[2-(oxetan-3-yl)ethyl]pyrimidin-2-yl]-1H-indole-3-sulfonamide] showed an IC50 of 16800 nM.
